Experimental data taken from patent US12497365B2, “4-pyridinyl formamide compound or derivative thereof, preparation method therefor, herbicidal composition and use thereof” (Qingdao Kingagroot Chemical Compound Co., Ltd., priority 2019, dated 2025).

What was measured:
Assay in all cases: Weeding effect in post-emergence stage
Assay type in all cases: in vivo
Conditions in all cases: active ingredient 2000 g/ha, 3 weeks after application, fresh weight control rate
[1] = test system: Amaranthus retroflexus L.
In short: (§1)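 Weeds sown in soil-filled pots under 0.5-2 cm cover were grown in a greenhouse and sprayed at the 2-3 leaf stage, 2 weeks after sowing. Compounds in acetone with Tween 80 and 1.5 liter/ha methyl oleate concentrate were applied at 2000, 1000, 500, 250 or 125 g/ha. Fresh weight control rate was scored after 3 weeks.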

[2] = test system: Descurainia sophia
In short: as §1

[3] = test system: Chenopodium album
In short: as §1

[4] = test system: Abutilon theophrasti
In short: as §1

Cn1nnnc1NC(=O)c1ccnc(-c2ccc(C#N)cc2)c1Cl [Compound 1-50]
Weeding effect, activity level (growth control rate), Amaranthus retroflexus L. [1]: 5 (Level 5: growth control rate is above 85%) | Weeding effect, activity level (growth control rate), Descurainia sophia [2]: 5 (Level 5: growth control rate is above 85%) | Weeding effect, activity level (growth control rate), Chenopodium album [3]: 5 (Level 5: growth control rate is above 85%) | Weeding effect, activity level (growth control rate), Abutilon theophrasti [4]: 5 (Level 5: growth control rate is above 85%)

Cn1nnnc1NC(=O)c1ccnc(-c2ccc(OC3CCCCO3)cc2)c1Cl (centres unmarked) [Compound 1-51]
Weeding effect, activity level (growth control rate), Amaranthus retroflexus L. [1]: 5 (Level 5: growth control rate is above 85%) | Weeding effect, activity level (growth control rate), Descurainia sophia [2]: 5 (Level 5: growth control rate is above 85%) | Weeding effect, activity level (growth control rate), Chenopodium album [3]: 5 (Level 5: growth control rate is above 85%) | Weeding effect, activity level (growth control rate), Abutilon theophrasti [4]: 5 (Level 5: growth control rate is above 85%)

Cn1nnnc1NC(=O)c1ccnc(-c2ccccc2-c2ccccc2)c1Cl [Compound 1-52]
Weeding effect, activity level (growth control rate), Amaranthus retroflexus L. [1]: 5 (Level 5: growth control rate is above 85%) | Weeding effect, activity level (growth control rate), Descurainia sophia [2]: 5 (Level 5: growth control rate is above 85%) | Weeding effect, activity level (growth control rate), Chenopodium album [3]: 5 (Level 5: growth control rate is above 85%) | Weeding effect, activity level (growth control rate), Abutilon theophrasti [4]: 5 (Level 5: growth control rate is above 85%)

Cn1nnnc1NC(=O)c1ccnc(-c2ccc(-c3ccccc3)cc2)c1Cl [Compound 1-53]
Weeding effect, activity level (growth control rate), Amaranthus retroflexus L. [1]: 5 (Level 5: growth control rate is above 85%) | Weeding effect, activity level (growth control rate), Descurainia sophia [2]: 5 (Level 5: growth control rate is above 85%) | Weeding effect, activity level (growth control rate), Chenopodium album [3]: 5 (Level 5: growth control rate is above 85%) | Weeding effect, activity level (growth control rate), Abutilon theophrasti [4]: 5 (Level 5: growth control rate is above 85%)

CCc1ccc(-c2ccc(-c3nccc(C(=O)Nc4nnnn4C)c3Cl)cc2)cc1 [Compound 1-54]
Weeding effect, activity level (growth control rate), Amaranthus retroflexus L. [1]: 5 (Level 5: growth control rate is above 85%) | Weeding effect, activity level (growth control rate), Descurainia sophia [2]: 5 (Level 5: growth control rate is above 85%) | Weeding effect, activity level (growth control rate), Chenopodium album [3]: 5 (Level 5: growth control rate is above 85%) | Weeding effect, activity level (growth control rate), Abutilon theophrasti [4]: 5 (Level 5: growth control rate is above 85%)

Cn1nnnc1NC(=O)c1ccnc(-c2cccc(OCc3ccccc3)c2)c1Cl [Compound 1-56]
Weeding effect, activity level (growth control rate), Amaranthus retroflexus L. [1]: 5 (Level 5: growth control rate is above 85%) | Weeding effect, activity level (growth control rate), Descurainia sophia [2]: 5 (Level 5: growth control rate is above 85%) | Weeding effect, activity level (growth control rate), Chenopodium album [3]: 5 (Level 5: growth control rate is above 85%) | Weeding effect, activity level (growth control rate), Abutilon theophrasti [4]: 5 (Level 5: growth control rate is above 85%)

Cn1nnnc1NC(=O)c1ccnc(-c2ccccc2Oc2ccccc2)c1Cl [Compound 1-57]
Weeding effect, activity level (growth control rate), Amaranthus retroflexus L. [1]: 5 (Level 5: growth control rate is above 85%) | Weeding effect, activity level (growth control rate), Descurainia sophia [2]: 5 (Level 5: growth control rate is above 85%) | Weeding effect, activity level (growth control rate), Chenopodium album [3]: 5 (Level 5: growth control rate is above 85%) | Weeding effect, activity level (growth control rate), Abutilon theophrasti [4]: 5 (Level 5: growth control rate is above 85%)

Cc1cccc(C)c1-c1nccc(C(=O)Nc2nnnn2C)c1Cl [Compound 1-58]
Weeding effect, activity level (growth control rate), Amaranthus retroflexus L. [1]: 5 (Level 5: growth control rate is above 85%) | Weeding effect, activity level (growth control rate), Descurainia sophia [2]: 5 (Level 5: growth control rate is above 85%) | Weeding effect, activity level (growth control rate), Chenopodium album [3]: 5 (Level 5: growth control rate is above 85%) | Weeding effect, activity level (growth control rate), Abutilon theophrasti [4]: 5 (Level 5: growth control rate is above 85%)
